Results from patent US4875922A, “Pyrimidine derivatives” (Imperial Chemical Industries PLC, priority 1986, dated 1989).

Tests used:
Barley = assay: Whole plant screen for plant growth regulator activity, barley (BR); type: in vivo, Barley (Atem); details: for G = Greening effect / I = Interligular or internodal length reduction / R = Retardation / T = Tillering or side shooting: BR, 4000 ppm (4 kg/ha), visual score after 2-6 weeks; for T = Tillering or side shooting: * = decrease in tillering
Outline: (§1)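 Plants were sprayed with compound at 4000 ppm (4 kg/ha in a 1000 l/ha field volume) by tracksprayer and kept in a glasshouse under a 16 h photoperiod: maize and rice at 25° C. day/22° C. night, wheat and barley at 16° C. day/13° C. night. Morphology was scored visually after 2-6 weeks against formulation blanks.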

Wheat = assay: Whole plant screen for plant growth regulator activity, wheat (WW); type: in vivo, Wheat (Timmo); details: WW, 4000 ppm (4 kg/ha), visual score after 2-6 weeks; for T = Tillering or side shooting: * = decrease in tillering
Outline: as §1

Rice [1] = assay: Whole plant screen for plant growth regulator activity, rice (RC); type: in vivo, Rice (Ishikari); details: 4000 ppm (4 kg/ha), visual score after 2-6 weeks; for T = Tillering or side shooting: * = decrease in tillering
Outline: as §1

Apple = assay: Whole plant screen for plant growth regulator activity, apple (AP); type: in vivo, Apple (Red Delicious); details: 4000 ppm (4 kg/ha), visual score after 2-6 weeks
Outline: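 Growth-regulator effects were judged by eye on glasshouse plants 2-6 weeks post-spray (timing varying with season), using formulation blanks for comparison. Application rate was 4000 ppm, equivalent to 4 kg/ha in 1000 l/ha.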

Tomato = assay: Whole plant screen for plant growth regulator activity, tomato (TO); type: in vivo, Tomato (Ailsa Craig); details: 4000 ppm (4 kg/ha), visual score after 2-6 weeks
Outline: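 Tomato (Ailsa Craig), one plant per 3-inch peat pot, sprayed at 2–2½ leaves with 4000 ppm (4 kg/ha in 1000 l/ha) by track sprayer. Glasshouse 25 °C day/22 °C night, 16 h photoperiod; morphology visually scored after 2–6 weeks against formulation blanks.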

Rice [2] = assay: Intermediate Retardant Test, rice; type: in vivo, Rice (Ishikari); details: Oryza sativa, 672 h, overall spray, approximately 28 days, Table VI, read-out: Percentage Reduction in Height of Rice (Compared to formulation blank)
Outline: (§2)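 Overall spray at 500 and 2000 ppm (0.5 and 2 kg/ha^-1 at 1000 l/ha^-1); for apples, a 2000 ppm foliar-only spray was also compared with a 2000 ppm root drench. Rice grew in flooded 4" paddy pots, barley and apples in 4" pots. About 28 days after treatment, height (to top-most ligule, or to apex for apples) was recorded as % reduction versus formulation blank.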

Spring Barley = assay: Intermediate Retardant Test, spring barley; type: in vivo, Spring Barley (Atem/kym); details: Hordeum vulgare, 672 h, overall spray, approximately 28 days, Table VII, read-out: Percentage Reduction in Height of Spring Barley (Compared to formulation blank)
Outline: as §2

Apples [3] = assay: Intermediate Retardant Test, apples, foliar spray compared with root drench; type: in vivo, Apples (Red Delicious); details: 672 h, approximately 28 days, Table IX, read-out: Percentage Reduction in Height of Apples (Compared to formulation blank); for percent reduction in plant height at 2000 ppm: 2000 ppm (Foliar); for percent reduction in plant height at 2000 µg/mL: soil, 2000 pmm (Root), root drench
Outline: as §2

Erysiphe graminis = assay: Foliar fungal disease control, Erysiphe graminis (barley); type: in vivo; details: 100 ppm spray plus root drench (approximately 40 ppm a.i/dry soil); inoculated 24 hours before treatment
Pyricularia oryzae = type: in vivo; details: 100 ppm spray plus root drench (approximately 40 ppm a.i/dry soil), one or two days before inoculation
Cercospora arachidicola = assay: Foliar fungal disease control, Cercospora arachidicola (peanut); type: in vivo; details: 100 ppm spray plus root drench (approximately 40 ppm a.i/dry soil), one or two days before inoculation
Plasmopara viticola = assay: Foliar fungal disease control, Plasmopara viticola (vine); type: in vivo; details: 100 ppm spray plus root drench (approximately 40 ppm a.i/dry soil), one or two days before inoculation
Puccinia recondita = assay: Foliar fungal disease control, Puccinia recondita (wheat); type: in vivo; details: 100 ppm spray plus root drench (approximately 40 ppm a.i/dry soil), one or two days before inoculation
Phytophthora infestans = type: in vivo; details: 100 ppm spray plus root drench (approximately 40 ppm a.i/dry soil), one or two days before inoculation
Maize = assay: Whole plant screen for plant growth regulator activity, maize (MZ); type: in vivo, Maize (Earliking); details: 4000 ppm (4 kg/ha), visual score after 2-6 weeks
Outline: as §1

Venturia inaequalis = assay: Foliar fungal disease control, Venturia inaequalis (apple); type: in vivo; details: 100 ppm spray plus root drench (approximately 40 ppm a.i/dry soil), one or two days before inoculation
Apples [4] = assay: Intermediate Retardant Test, apples, overall spray; type: in vivo, Apples (Red Delicious); details: approximately 28 days, Table VIII
From the text: Three species are involved in this test RICE, SPRING-BARLEY and APPLES. The variety and growth stages at spray are outlined in Table V. Compounds were applied at 500 ppm and 2000 ppm respectively (0.5 kg and 2 kg/ha^-1 at a field volume of 1000 l/ha^-1) as an overall spray except in the case of certain tests on APPLES. This gives a foliar and root component in the test, i.e., this test will detect the activity of both root and foliar acting compounds. The intermediate retardant test on APPLES of which the results are given in Table IX was different, in that a foliar (only) spray at 2000 ppm was compared with a root drench, also at 2000 ppm. The rice was grown in 4" `paddy` pots, i.e., the roots and bottom of the stems are immersed in water under conditions corresponding to those in paddy fields. Spring barley and apples were grown in 4" pots. The plants were assessed for height to top-most ligule at approximately 28 days after treatment for spring barley and rice and for height to apex at approximately 28 days after the treatment for apples. In each case the result for the 500 ppm and 2000 ppm test for each compound is compared to the height of the formulation blank in that test, presented as a percentage reduction in height compared to the formulation blank.

Compound	G = Greening effect (Barley)	I = Interligular or internodal length reduction (Barley)	R = Retardation (Barley)	R = Retardation (Wheat)	T = Tillering or side shooting (Wheat)	G = Greening effect (Rice [1])	I = Interligular or internodal length reduction (Rice [1])	R = Retardation (Rice [1])	I = Interligular or internodal length reduction (Apple)	R = Retardation (Apple)	Percent reduction in rice height vs formulation blank at 500 ppm (Rice [2]) [%]	Percent reduction in rice height vs formulation blank at 2000 ppm (Rice [2]) [%]	percent reduction in plant height at 500 ppm (Spring Barley) [%]	percent reduction in plant height at 2000 ppm (Spring Barley) [%]	disease control, ERYSIPHE GRAMINIS (BARLEY) (Erysiphe graminis)	disease control, P[…] (RICE) (Pyricularia oryzae)	disease control, CERCOSPORA ARACHIDICOLA (PEANUT) (Cercospora arachidicola)	disease control, PLASMOPARA VITICOLA (VINE) (Plasmopara viticola)	disease control, PUCCINIA RECONDITA (WHEAT) (Puccinia recondita)	disease control, PH[…] (TOMATO) (Phytophthora infestans)	other results
CC(C)(C)C(O)(C#CCCCCl)c1cncnc1 (stereo not shown) [Compound 19, 2,2-Dimethyl-1-(5-chloropent-1-yne)-1-(pyrimidin-5-yl)-propan-1-ol]	1 (10-30%)	3 (61-100%)	3 (61-100%)	3 (61-100%)	3 (61-100%)	2 (31-60%)	3 (61-100%)	2 (31-60%)	3 (61-100%)	3 (61-100%)	11	39	31	57	4	0 (60-100% of disease on untreated plants)	4	0 (60-100% of disease on untreated plants)	4	0 (60-100% of disease on untreated plants)	A = Apical damage (Barley; 4000 ppm): 3 (61-100%); T = Tillering or side shooting (Barley): 3 (61-100%); I = Interligular or internodal length reduction (Wheat): 3 (61-100%); G = Greening effect (Apple): 1 (10-30%); G = Greening effect (Tomato): 2 (31-60%); I = Interligular or internodal length reduction (Tomato): 2 (31-60%); R = Retardation (Tomato): 2 (31-60%); percent reduction in plant height at 2000 ppm (Apples [3]): 54%; percent reduction in plant height at 2000 µg/mL (Apples [3]): 65%
CC(C)CC#CC(O)(c1cncnc1)C(C)(C)C (stereo not shown) [Compound 16]	2 (31-60%)	2 (31-60%)	3 (61-100%)	3 (61-100%)	3 (61-100%)	2 (31-60%)	3 (61-100%)	3 (61-100%)	3 (61-100%)	3 (61-100%)	59	65	66	88	4	3 (trace - 5% of disease on untreated plants)	4	0 (60-100% of disease on untreated plants)	3 (trace - 5% of disease on untreated plants)	0 (60-100% of disease on untreated plants)	G = Greening effect (Wheat): 2 (31-60%); I = Interligular or internodal length reduction (Wheat): 3 (61-100%); T = Tillering or side shooting (Rice [1]): 1 (10-30%); G = Greening effect (Maize): 2 (31-60%); I = Interligular or internodal length reduction (Maize): 3 (61-100%); R = Retardation (Maize): 3 (61-100%); T = Tillering or side shooting (Maize; * = decrease in tillering): 1 (10-30%); G = Greening effect (Apple): 3 (61-100%); G = Greening effect (Tomato): 2 (31-60%); I = Interligular or internodal length reduction (Tomato): 3 (61-100%); R = Retardation (Tomato): 3 (61-100%); percent reduction in plant height at 2000 ppm (Apples [3]): 6%; percent reduction in plant height at 2000 µg/mL (Apples [3]): 47%; disease control, VENTURIA INAEQUALIS (APPLE) (Venturia inaequalis): 4
CCCCC#CC(O)(c1cncnc1)C(C)C (stereo not shown) [Compound 1, 2-methyl-1-(hex-1-yne)-1-(pyrimidin-5-yl)-propan-1-ol]	2 (31-60%)	3 (61-100%)	3 (61-100%)	3 (61-100%)	2 (31-60%)	2 (31-60%)	3 (61-100%)	2 (31-60%)	3 (61-100%)	3 (61-100%)	6.06	23	1.3	12.1	4	0 (60-100% of disease on untreated plants)	0 (60-100% of disease on untreated plants)	0 (60-100% of disease on untreated plants)	0 (60-100% of disease on untreated plants)	0 (60-100% of disease on untreated plants)	T = Tillering or side shooting (Barley): 1 (10-30%); G = Greening effect (Wheat): 1 (10-30%); T = Tillering or side shooting (Rice [1]): 3 (61-100%); I = Interligular or internodal length reduction (Maize): 2 (31-60%); R = Retardation (Maize): 2 (31-60%); T = Tillering or side shooting (Apple; * = decrease in tillering): 1 (10-30%); Percentage Reduction in Height of Apples (Compared to formulation blank) (Apples [4]; 500 ppm): 10.8%; Percentage Reduction in Height of Apples (Compared to formulation blank) (Apples [4]; 2000 ppm): 39.2%
